Data set [1] is described as follows: Oral capsule PK study of CIVI 008 without GalNAc using 5-CNAC as carrier. The note with it: single oral capsule 20 mg/200 mg 5-CNAC. In kind it is in vivo, Cynomolgus monkey. The text has this:
As shown in previous Examples 1 and 3, orally dosed CIVI 008 with GalNAc is rapidly internalized in the liver by the GalNAc receptor, with very little CIVI 008 escaping into general circulation at doses below that required for saturation of the GalNAc receptor. In many instances the objective is to target genes that are expressed in organs other than the liver. […] The objective of this study was to determine the systemic exposure of orally administered CIVI 008 without the GalNAc conjugate, and to compare the exposure to that of a similar oral dose of CIVI 008 with GalNAc.
Study outline: Dry blended capsules (20 mg CIVI 008 without GalNAc/200 mg 5-CNAC) were manufactured from uniform dry blended formulations, that were filled into enterically coated Size 0, hard shell gelatin capsules. A total of 10 Cynomolgus monkeys (5 males and 5 females) were each administered a single capsule by oral gavage, and blood samples for PK analysis were drawn pre-dose and 0.5, 1.5, 3 and 5 hours post-dosing.

The nature of data set [2]: Oral capsule toxicokinetic study of CIVI 008 using 5-CNAC as carrier. The data set is classed as in vivo, Cynomolgus monkey. The note with it: for AUC with increasing dose of CIVI 008 / Cmax with increasing dose of CIVI 008: constant dose of 5-CNAC. From the text: The objectives of this study were to determine the ability of 5-CNAC [Disodium N-(5-Chorosalicyloyl)-8-aminocaprylate] to facilitate oral uptake of CIVI 008 and to determine the manufacture method and dosing paradigm of CIVI 008/5-CNAC capsules that provide the most efficient oral uptake of CIVI 008 when administered to Cynomolgus monkeys of Mauritian origin.
Study outline: A total of 10 Cynomolgus monkeys (5 males and 5 females) were each dosed with 2 group A capsules on Monday and Wednesday in week 1, followed by 4 days of dosing holiday. This Monday and Wednesday dosing scheme was continued in weeks 2, 3, 5, 6, 7, 8, 13, 14, 15 and 17 using 2 group B-capsules per dose occasion in week 2, and 1 capsule of groups C to K per dose occasion in their respective weeks. During the dosing period, blood samples for PK analysis were drawn pre-dose and 0.5, 1.5, 3 and 5 hours post-dosing on Mondays and Wednesdays. Samples for clinical chemistry and hematology (see example 1) were taken pre-study and end of study.

A further data set relates to plasma LDL. Kind of data set: Plasma LDL after once-daily oral CIVI 008/5-CNAC capsule for 49 days. In kind it is in vivo, Cynomolgus monkey. The note with it: 5-CNAC vs SNAC. As to the method: The objectives of this study were to determine the ability of 5-CNAC [disodium N-(5-chorosalicyloyl)-8-aminocaprylate] to reduce plasma PCSK9 when dosed once daily for 7 weeks. The half-life of CIVI 008 in the liver of non-human primates is between 2 to 3 weeks, so after 7-weeks of dosing liver concentrations are expected to reach >80% of its steady state level.
Study outline: Dry blended capsules (20 mg CIVI 008/200 mg 5-CNAC) were manufactured from uniform dry blended formulations, that were filled into enterically coated Size 0, hard shell gelatin capsules. A total of 10 Cynomolgus monkeys (5 males and 5 females) were each administered a single capsule by oral gavage once daily for 49 days. […] During the dosing period, blood samples for PK analysis were drawn pre-dose and 0.5, 1.5, 3 and 5 hours post-dosing at study start and at day 49. Blood samples for PCSK9 and lipid analysis were drawn on week −2 and −1 pre-study, pre-dose on Day 1 and weekly thereafter for the duration of the study. Samples for clinical chemistry, coagulation and hematology were taken on week −2 and −1 pre-study, and on Day 22 and 49.

Data set [3] can be described thus: Oral capsule PK study of an oligo against Factor VII, with or without GalNAc, using 5-CNAC as carrier. The data set is classed as in vivo, Cynomolgus monkey. The protocol: Study outline: Dry blended capsules (20 mg Factor FVII with or without GalNac/200 mg 5-CNAC) were manufactured from uniform dry blended formulations, that were filled into enterically coated Size 0, hard shell gelatin capsules. A total of 10 Cynomolgus monkeys (5 males and 5 females) were each administered a single capsule of either oligo by oral gavage, and blood samples for PK analysis were drawn pre-dose and 0.5, 1.5, 3 and 5 hours post-dosing.

The conditions of data set [4]: cynomolgus monkey, in vivo.
Experimental: (§2) The objectives of this study were to evaluate the toxicity and reversibility of CIVI 008 and to determine the pharmacology, plasma exposure and target organ accumulation of CIVI 008 when administered daily by oral capsule to the Cynomolgus monkey of Mauritian origin for 42 days compared to administration by the subcutaneous route administered once every two weeks (investigated previously).
(§3) Oral Capsule: Capsules containing CIVI 008 (10 mg)/SNAC (100 mg) were manufactured as uniform dry blend formulations, that were filled into Size 4 hard shell gelatin capsules that were enterically coated post fill.
For data set [5] the following is noted: cynomolgus monkey, in vivo, po.
Experimental: as §2, §3
A further data set has as its system PCSK9. Kind of data set: PCSK9 change from baseline after daily oral CIVI 008/SNAC capsules for 42 days. The note with it: control animals, 20 mg CIVI 008 capsules without SNAC, daily x 42. The data set is classed as in vivo, Cynomolgus monkey. From the text: (§1) Clinical chemistry, PCSK9 and lipids: urea nitrogen, creatinine, total protein, albumin, globulin, albumin:globulin ratio, total bilirubin, aspartate aminotransferase, alanine aminotransferase, alkaline phosphatase, gamma glutamyltransferase, creatine kinase, calcium, inorganic phosphorus, sodium, potassium, chloride, high density lipoproteins, low density lipoprotein, very low density lipoprotein, total cholesterol, triglycerides.

A further data set deals with plasma LDL-cholesterol. Nature of the data set: Plasma LDL cholesterol change from baseline after daily oral CIVI 008/SNAC capsules. In kind it is in vivo, Cynomolgus monkey.
Source text: as §1

A short description of data set [6]: Half-life of CIVI 008 in the liver. The data set is classed as in vivo, non-human primates. Particulars: expected after 7-weeks of once daily dosing.
The nature of data set [7]: Repeat-dose toxicity of CIVI 008 formulated with SNAC (GLP). In kind it is in vivo, Cynomolgus monkey.
[8] abbreviates: single oral capsule 20 mg/200 mg 5-CNAC.
[9] abbreviates: CIVI 008 with 5-CNAC capsule, stated as specific aspect.
Where [10] appears, read: dose range 5 mg to 30 mg, 200 mg 5-CNAC.

l = locked nucleic acid (LNA); d = 2'-deoxy (DNA)

Turning to “CIVI 008 without GalNAc: Unconjugated form of CIVI 008, 16 nt LNA gapmer, SEQ ID NO: 134, without GalNAc moiety (AATGCTACAAAACCCA; LNA gapmer stated, pattern not given here)”, in data set [1], the “AUC relative to similar dose of CIVI 008 with GalNac” value is about 8 fold, the “Cmax relative to similar dose of CIVI 008 with GalNac” value is about 8 fold, the “concentrations in the plasma” value is given as “measurable concentrations” and the “plasma profile compared to CIVI 008 with GalNAc” value is reported as “very similar”.

Consider `O=C(O)CCCCCCCNC(=O)c1cc(Cl)ccc1O` [5-CNAC, N-(5-chlorosalicyloyl)-8-aminocaprylic acid], for which the “efficiency of carrier in facilitating oral uptake of CIVI 008” value in data set [2] (5-CNAC vs SNAC) is “more efficient of the two carriers”. Further, in the data set on plasma LDL, the “efficiency in facilitating oral uptake of CIVI 008” value is “substantially more efficient than SNAC”.

Regarding “GalNac conjugated Factor FVII oligo: 13 nt LNA gapmer antisense oligo against Factor VII, SEQ ID NO: 158, with GalNAc moiety (antisense GCACCACGGTCCA; sugars from the 5' end l2 d8 l3, all phosphorothioate, methylation of C not given here; GalNAc conjugate attached, further chemistry not fully specified)”, the “species found in plasma samples” value in [3] (0.5 hr samples) was “parent compound”; in data set [3] (1.5 hr samples), “mixture of parent compound and loss of carbohydrate moiety”; in [3] (3 hr samples) it was “progressive loss of carbohydrate moiety”; in [3] (5 hr samples) it was “progressive loss of carbohydrate moiety”.

Regarding “unconjugated Factor FVII oligo: 13 nt LNA gapmer antisense oligo against Factor VII, SEQ ID NO: 158, without GalNAc moiety (antisense GCACCACGGTCCA; sugars from the 5' end l2 d8 l3, all phosphorothioate, methylation of C not given here)”, in [3] (setting [8]), the “AUC relative to GalNac conjugated Factor FVII oligo” value is about 3.5 fold and the “Cmax relative to GalNac conjugated Factor FVII oligo” value is given as about 3.5 fold.

“cepadacursen (AATGCTACAAAACCCA; LNA gapmer with GalNAc conjugate, pattern not given here) [CIVI 008]”: in data set [4], the “liver concentrations, difference between the SQ and PO arms” value is on record as “approximately one”. Besides, in data set [5], the “form of CIVI 008 detected in plasma (HPLC peak)” value is “mixture of parent compound and metabolites”; the “form of CIVI 008 detected in plasma (HPLC retention time)” value is “absorbed intact from the gut”; the “mean Tmax” value is recorded as at most 30 min. Besides, in the data set with PCSK9, the “mean PCSK9 reductions” value is “comparatively small”. In data set [2] (5-CNAC vs SNAC (Example 1)), the “AUC0-5 with 5-CNAC carrier compared to similar dose with SNAC carrier” value is given as “increase” and the “Cmax with 5-CNAC carrier compared to similar dose with SNAC carrier” value is “increase”. Moreover, in data set [2] (setting [9]), the “increase of the mean AUC0-50 with respect to corresponding composition comprising SNAC instead of 5-CNAC” value is recorded as “about 80%” and the “increase of the mean Cmax with respect to corresponding composition comprising SNAC instead of 5-CNAC” value is recorded as “about 110%”. In data set [2] (dose above 25 mg), the “AUC with increasing dose of CIVI 008” value is “more than dose proportional increases” and the “Cmax with increasing dose of CIVI 008” value was “more than dose proportional increases”. Besides, in [2] (doses up to 25 mg), the “AUC with increasing dose of CIVI 008” value is “dose proportionally up to 25 mg” and the “Cmax with increasing dose of CIVI 008” value is “dose proportionally up to 25 mg”. Also, in [2] (setting [10]), the “AUC profiles, freeze-dried vs dry blended capsules” value was “very similar” and the “Cmax profiles, freeze-dried vs dry blended capsules” value is listed as “very similar”. For the same compound, the LDL-c reductions result in the data set with plasma LDL-cholesterol (control animals, 20 mg CIVI 008 capsules without SNAC, throughout the study) was “fluctuated around baseline values”. Further, the “LDL levels at the end of recovery” value in the data set on plasma LDL-cholesterol (end of recovery) is given as “had yet to fully return to baseline”. The “LDL levels at the end of dosing, persistence” value with plasma LDL-cholesterol (recovery period after 42 days oral dosing with SNAC) was “maintained for two weeks post-dosing”. The “liver concentrations as share of steady state level” value in data set [6] is on record as over 80%. Moreover, the “histopathological changes in intestinal tract (duodenum, jejunum, ileum and colon)” value in data set [7] (QD oral dosing for 42 days) was “no local histopathological changes”. The “macroscopic or microscopic findings suggesting local or systemic effects” value in data set [7] (end of dosing and end of recovery) is listed as “no macroscopic or microscopic findings”. In data set [7] (following oral capsule administration), the organ weight changes result is given as “no organ weight changes”.

The values are drawn from patent publication US20220380761A1, “ORAL DELIVERY OF OLIGONUCLEOTIDES” (CiVi Biopharma, Inc., priority 2021, published 2022).
